Laboratory results taken from US9499466B2, “Diene-based carboxylate anion and salt thereof, and polymerizable or curable composition thereof” (NIPPON SHOKUBAI CO., LTD., priority 2010, dated 2016).

Experiments:
[1] = Solubility test (dissolution method); conditions: for Solubility (dissolution method) Water: mixed at 1%, 3%, 5%, 10%, 20% or more
Text: The solubility evaluation by the dissolution method requires complicated operations and a large amount of test sample. Therefore, this test is not suitable for screening. However, the solubility of each compound can be more accurately evaluated.

[2] = Solubility test (film-forming method); conditions: for Solubility (film-forming method) Water: solvent dropped on film on glass plate
Method: Each compound was applied on a glass plate and the glass plate was leaned against the wall. Each solvent shown in Table 5 was dropped (5 to 6 drops) on the glass plate with a pasteur pipette. The glass plate was visually observed after the dropped solvent was dried, the surface was optionally rubbed with a spatula, and the solubility (film-forming method) was evaluated according to the criteria shown in Table 4.

[3] = Adhesion of cured material to PET film (cross-cut method, JIS K 5600-5-6); conditions: UV-cured film on surface-untreated PET film, cross-cut 10×10
Method: Each compound shown in Table 11 was formed into a UV-cured film on a PET film in the same manner as in the pencil hardness test, except that the PET film used as a substrate was a surface-untreated polyethylene terephthalate (PET) film (Lumirror L-50T60, produced by Toray Industries, Inc.).
The adhesion of the UV-cured film to the PET film was evaluated based on JIS K 5600-5-6 (cross-cut method). The number of divided segments was 10×10 segments=100 segments. The adhesion was evaluated by the number of the segments which remain without peeling or damage in 100 segments.

Row | Compound | Solubility (dissolution method) Toluene [1] | Solubility (film-forming method) Methanol [2] | Solubility (dissolution method) THF [1] | Solubility (film-forming method) Water [2] | further results
1 | C=C(C)C(=O)[O-].C=CCOCC(=C)C(=O)[O-].[CH3][Sn+2][CH3] [(CH3)2Sn(AMA)1(MAA)1] | ◯◯ (Become uniform and transparent at a compound concentration of 20% or more) | – | – | – | –
2 | C=CCOCC(=C)C(=O)[O-].C=CCOCC(=C)C(=O)[O-].[CH3][Sn+2][CH3] [(CH3)2Sn(AMA)2] | ◯◯ (Become uniform and transparent at a compound concentration of 20% or more) | – | – | – | –
3 | C=CCOCC(=C)C(=O)[O-].C=CCOCC(=C)C(=O)[O-].CC(C)[O][Ti+2][O]C(C)C [(i-C3H7O)2Ti(AMA)2] | ◯◯ (Become uniform and transparent at a compound concentration of 20% or more) | X-Δ | ◯◯ (Become uniform and transparent at a compound concentration of 20% or more) | – | Solubility (film-forming method) Acetone [2]: X-Δ; Solubility (film-forming method) Acetonitrile [2]: X-Δ; Solubility (film-forming method) Ethyl acetate [2]: X-Δ; Solubility (film-forming method) THF [2]: X-Δ; Solubility (film-forming method) Toluene [2]: X-Δ; Solubility (dissolution method) Acetone [1]: ◯◯ (Become uniform and transparent at a compound concentration of 20% or more); Solubility (dissolution method) Acetonitrile [1]: ◯◯ (Become uniform and transparent at a compound concentration of 20% or more); Solubility (dissolution method) Ethyl acetate [1]: ◯◯ (Become uniform and transparent at a compound concentration of 20% or more); Solubility (dissolution method) Methanol [1]: ◯◯ (Become uniform and transparent at a compound concentration of 20% or more); Solubility (dissolution method) Water [1]: X (Not become uniform and transparent even at a compound concentration of 1%)
4 | C=CCOCC(=C)C(=O)[O-].C=CCOCC(=C)C(=O)[O-].CCC[O][Zr+2][O]CCC [(n-C3H7O)2Zr(AMA)2] | ◯◯ (Become uniform and transparent at a compound concentration of 20% or more) | X-Δ | ◯◯ (Become uniform and transparent at a compound concentration of 20% or more) | – | Solubility (film-forming method) Acetone [2]: X-Δ; Solubility (film-forming method) Acetonitrile [2]: X-Δ; Solubility (film-forming method) Ethyl acetate [2]: X-Δ; Solubility (film-forming method) THF [2]: X-Δ; Solubility (film-forming method) Toluene [2]: X-Δ; Solubility (dissolution method) Acetone [1]: ◯◯ (Become uniform and transparent at a compound concentration of 20% or more); Solubility (dissolution method) Acetonitrile [1]: X (Not become uniform and transparent even at a compound concentration of 1%); Solubility (dissolution method) Ethyl acetate [1]: ◯ (Become uniform and transparent at a compound concentration of 10%); Solubility (dissolution method) Methanol [1]: X (Not become uniform and transparent even at a compound concentration of 1%); Solubility (dissolution method) Water [1]: X (Not become uniform and transparent even at a compound concentration of 1%)
5 | C=CCOCC(=C)C(=O)[O-].C=CCOCC(=C)C(=O)[O-].C=CCOCC(=C)C(=O)[O-].[Al+3] [Al(AMA)3] | – | – | – | – | Adhesion (segments remaining without peeling or damage in 100 segments) [3]: 100/100
6 | C=CCOCC(=C)C(=O)[O-].C=CCOCC(=C)C(=O)[O-].C=CCOCC(=C)C(=O)[O-].[Au+3] [Au(AMA)3] | – | – | – | – | Solubility (film-forming method) Toluene [2]: X-Δ
7 | C=CCOCC(=C)C(=O)[O-].C=CCOCC(=C)C(=O)[O-].C=CCOCC(=C)C(=O)[O-].[Bi+3] [Bi(AMA)3] | – | – | – | X-Δ | –
8 | C=CCOCC(=C)C(=O)[O-].C=CCOCC(=C)C(=O)[O-].[Co+2] [Co(AMA)2] | ◯◯ (Become uniform and transparent at a compound concentration of 20% or more) | X-Δ | – | – | Solubility (film-forming method) Acetonitrile [2]: X-Δ
9 | C=CCOCC(=C)C(=O)[O-].C=CCOCC(=C)C(=O)[O-].C=CCOCC(=C)C(=O)[O-].[Cr+3] [Cr(AMA)3] | ◯◯ (Become uniform and transparent at a compound concentration of 20% or more) | X-Δ | – | – | –
10 | C=CCOCC(=C)C(=O)[O-].C=CCOCC(=C)C(=O)[O-].[Cu+2] [Cu(AMA)2] | – | – | ◯◯ (Become uniform and transparent at a compound concentration of 20% or more) | – | –
11 | C=CCOCC(=C)C(=O)[O-].C=CCOCC(=C)C(=O)[O-].C=CCOCC(=C)C(=O)[O-].[Er+3] [Er(AMA)3] | ◯ (Become uniform and transparent at a compound concentration of 10%) | – | ◯◯ (Become uniform and transparent at a compound concentration of 20% or more) | X-Δ | –
12 | C=CCOCC(=C)C(=O)[O-].C=CCOCC(=C)C(=O)[O-].C=CCOCC(=C)C(=O)[O-].[Eu+3] [Eu(AMA)3] | ◯ (Become uniform and transparent at a compound concentration of 10%) | – | ◯◯ (Become uniform and transparent at a compound concentration of 20% or more) | – | –
13 | C=CCOCC(=C)C(=O)[O-].C=CCOCC(=C)C(=O)[O-].C=CCOCC(=C)C(=O)[O-].[Fe+3] [Fe(AMA)3] | ◯◯ (Become uniform and transparent at a compound concentration of 20% or more) | – | – | X-Δ | –
14 | C=C(C)C(=O)[O-].C=CCOCC(=C)C(=O)[O-].C=CCOCC(=C)C(=O)[O-].[In+3] [In(AMA)2(MAA)1] | ◯◯ (Become uniform and transparent at a compound concentration of 20% or more) | X-Δ | – | – | –
15 | C=CCOCC(=C)C(=O)[O-].C=CCOCC(=C)C(=O)[O-].C=CCOCC(=C)C(=O)[O-].[In+3] [In(AMA)3] | – | X-Δ | ◯◯ (Become uniform and transparent at a compound concentration of 20% or more) | – | Solubility (film-forming method) Acetone [2]: X-Δ; Solubility (film-forming method) Acetonitrile [2]: X-Δ; Solubility (film-forming method) Ethyl acetate [2]: X-Δ
16 | C=CCOCC(=C)C(=O)[O-].C=CCOCC(=C)C(=O)[O-].C=CCOCC(=C)C(=O)[O-].[La+3] [La(AMA)3] | ◯ (Become uniform and transparent at a compound concentration of 10%) | – | ◯◯ (Become uniform and transparent at a compound concentration of 20% or more) | X-Δ | –
17 | C=CCOCC(=C)C(=O)[O-].C=CCOCC(=C)C(=O)[O-].[Mn+2] [Mn(AMA)2] | ◯◯ (Become uniform and transparent at a compound concentration of 20% or more) | – | – | X-Δ | –
18 | C=C(C)C(=O)[O-].C=CCOCC(=C)C(=O)[O-].[Ni+2] [Ni(AMA)1(MAA)1] | ◯◯ (Become uniform and transparent at a compound concentration of 20% or more) | – | – | – | –
19 | C=C(C)COCC(=C)C(=O)[O-].C=C(C)COCC(=C)C(=O)[O-].[Zn+2] [Zn(MAMA)2] | ◯◯ (Become uniform and transparent at a compound concentration of 20% or more) | – | – | X-Δ | –
